Assay results taken from patent US9260439B2, “Dihydropyrrolopyrimidine derivatives” (PFIZER INC., priority 2014, dated 2016).

Each compound was assayed against truncated PI3Kα (p110α/iSH2 p85α) (Homo sapiens (Human), UniProt P42336) (assay: PI3KA_Act fluorescence polarization kinase assay (Ki)). Conditions: 1 mM ATP.
Assay type: biochemical
Procedure, shortened: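 Ki values result from fitting fluorescence polarization signals to the Morrison equation for tight-binding competitive inhibitors. The detector was GST-Grp1 PH domain with TAMRA-PIP3, read after a 30 min room-temperature reaction of 0.5 nM truncated PI3Kα and 30 μM PIP2 at pH 7.4 in HEPES/NaCl/MgCl2/DTT/CHAPS buffer. Compounds were tested as 12-point 3-fold dilutions from 3 μM.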

Chain of truncated PI3Kα (p110α/iSH2 p85α) (P42336 whole entry, the tested form may be a part): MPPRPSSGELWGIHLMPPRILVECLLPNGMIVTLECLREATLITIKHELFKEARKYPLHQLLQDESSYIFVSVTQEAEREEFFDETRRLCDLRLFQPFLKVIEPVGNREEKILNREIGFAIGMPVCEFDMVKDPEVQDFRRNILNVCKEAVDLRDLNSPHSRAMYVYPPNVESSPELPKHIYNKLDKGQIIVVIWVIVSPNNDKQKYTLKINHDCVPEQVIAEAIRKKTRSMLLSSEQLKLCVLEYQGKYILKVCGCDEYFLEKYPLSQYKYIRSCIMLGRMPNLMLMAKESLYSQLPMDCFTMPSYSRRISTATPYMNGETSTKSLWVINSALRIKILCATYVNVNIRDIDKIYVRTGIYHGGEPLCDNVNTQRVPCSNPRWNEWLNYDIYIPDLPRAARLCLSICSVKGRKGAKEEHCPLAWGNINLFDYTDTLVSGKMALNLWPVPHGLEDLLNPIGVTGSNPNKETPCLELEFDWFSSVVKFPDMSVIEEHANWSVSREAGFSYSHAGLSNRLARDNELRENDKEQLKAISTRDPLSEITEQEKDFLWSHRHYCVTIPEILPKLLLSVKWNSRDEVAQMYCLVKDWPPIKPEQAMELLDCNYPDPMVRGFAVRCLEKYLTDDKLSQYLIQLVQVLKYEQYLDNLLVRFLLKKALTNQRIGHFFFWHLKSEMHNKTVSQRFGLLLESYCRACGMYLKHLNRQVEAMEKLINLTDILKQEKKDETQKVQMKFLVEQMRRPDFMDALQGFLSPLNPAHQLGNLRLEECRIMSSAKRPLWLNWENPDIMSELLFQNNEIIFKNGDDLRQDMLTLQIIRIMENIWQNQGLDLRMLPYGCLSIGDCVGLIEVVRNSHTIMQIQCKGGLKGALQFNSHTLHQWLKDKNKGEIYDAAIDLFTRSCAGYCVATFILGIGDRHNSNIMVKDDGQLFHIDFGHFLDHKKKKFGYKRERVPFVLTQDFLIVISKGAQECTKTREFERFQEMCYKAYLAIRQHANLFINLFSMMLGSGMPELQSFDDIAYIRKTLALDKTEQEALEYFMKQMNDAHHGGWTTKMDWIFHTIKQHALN

SMILES	PI3KA_Act Ki
CC(C)(C(N)=O)C(=O)N1CC[C@](C)(N2CCc3c(-c4cnc(N)nc4)nc(N4CCOCC4)nc32)C1 [Example 318, 3-{(3S)-3-[4-(2-aminopyrimidin-5-yl)-2-(morpholin-4-yl)-5,6-dihydro-7H-pyrrolo[2,3-d]pyrimidin-7-yl]-3-methylpyrrolidin-1-yl}-2,2-dimethyl-3-oxopropanamide]	0.076 nM
CC(C)(C(=O)O)C(=O)N1CC[C@](C)(N2CCc3c(-c4cnc(N)nc4)nc(N4CCOCC4)nc32)C1 [Example 319, 3-{(3S)-3-[4-(2-aminopyrimidin-5-yl)-2-(morpholin-4-yl)-5,6-dihydro-7H-pyrrolo[2,3-d]pyrimidin-7-yl]-3-methylpyrrolidin-1-yl}-2,2-dimethyl-3-oxopropanoic acid]	2.266 nM
CC(C(=O)O)C(=O)N1CC[C@](C)(N2CCc3c(-c4cnc(N)nc4)nc(N4CCOCC4)nc32)C1 (stereo partly drawn) [Example 320, 3-{(3S)-3-[4-(2-aminopyrimidin-5-yl)-2-(morpholin-4-yl)-5,6-dihydro-7H-pyrrolo[2,3-d]pyrimidin-7-yl]-3-methylpyrrolidin-1-yl}-2-methyl-3-oxopropanoic acid]	0.318 nM
CCOC(=O)C(C)C(=O)N1CC[C@](C)(N2CCc3c(-c4cnc(N)nc4)nc(N4CCOCC4)nc32)C1 (stereo partly drawn) [Example 321, ethyl 3-{(3S)-3-[4-(2-aminopyrimidin-5-yl)-2-(morpholin-4-yl)-5,6-dihydro-7H-pyrrolo[2,3-d]pyrimidin-7-yl]-3-methylpyrrolidin-1-yl}-2-methyl-3-oxopropanoate]	0.042 nM
CCOC(=O)C(C)(C)C(=O)N1CC[C@](C)(N2CCc3c(-c4cnc(N)nc4)nc(N4CCOCC4)nc32)C1 [Example 322, ethyl 3-{(3S)-3-[4-(2-aminopyrimidin-5-yl)-2-(morpholin-4-yl)-5,6-dihydro-7H-pyrrolo[2,3-d]pyrimidin-7-yl]-3-methylpyrrolidin-1-yl}-2,2-dimethyl-3-oxopropanoate]	<0.018 nM
C[C@]1(N2CCc3c(-c4cnc(N)nc4)nc(N4CCOCC4)nc32)CCN(C(=O)CC2CC2)C1 [Example 323, 1-{(3S)-3-[4-(2-aminopyrimidin-5-yl)-2-(morpholin-4-yl)-5,6-dihydro-7H-pyrrolo[2,3-d]pyrimidin-7-yl]-3-methylpyrrolidin-1-yl}-2-cyclopropylethanone]	<0.018 nM
C[C@@]1(N2CCc3c(-c4cnc(N)nc4)nc(N4CCOCC4)nc32)CCN(C(=O)CC2CC2)C1 [Example 324, 1-{(3R)-3-[4-(2-aminopyrimidin-5-yl)-2-(morpholin-4-yl)-5,6-dihydro-7H-pyrrolo[2,3-d]pyrimidin-7-yl]-3-methylpyrrolidin-1-yl}-2-cyclopropylethanone]	0.198 nM
C[C@]1(N2CCc3c(-c4cnc(N)nc4)nc(N4CCOCC4)nc32)CCN(C(=O)CN2CCC2)C1 [Example 325, 1-{(3S)-3-[4-(2-aminopyrimidin-5-yl)-2-(morpholin-4-yl)-5,6-dihydro-7H-pyrrolo[2,3-d]pyrimidin-7-yl]-3-methylpyrrolidin-1-yl}-2-(azetidin-1-yl)ethanone]	0.058 nM
C[C@]1(N2CCc3c(-c4cnc(N)nc4)nc(N4CCOCC4)nc32)CCN(C(=O)C2CC2)C1 [Example 328, {(3S)-3-[4-(2-aminopyrimidin-5-yl)-2-(morpholin-4-yl)-5,6-dihydro-7H-pyrrolo[2,3-d]pyrimidin-7-yl]-3-methylpyrrolidin-1-yl}(cyclopropyl) methanone]	0.024 nM
CC1(C(=O)N2CC[C@](C)(N3CCc4c(-c5cnc(N)nc5)nc(N5CCOCC5)nc43)C2)CC1 [Example 329, {(3S)-3-[4-(2-aminopyrimidin-5-yl)-2-(morpholin-4-yl)-5,6-dihydro-7H-pyrrolo[2,3-d]pyrimidin-7-yl]-3-methylpyrrolidin-1-yl}(1-methylcyclopropyl) methanone]	<0.018 nM
CC1(C(=O)N2CC[C@@](C)(N3CCc4c(-c5cnc(N)nc5)nc(N5CCOCC5)nc43)C2)CC1 [Example 330, {(3R)-3-[4-(2-aminopyrimidin-5-yl)-2-(morpholin-4-yl)-5,6-dihydro-7H-pyrrolo[2,3-d]pyrimidin-7-yl]-3-methylpyrrolidin-1-yl}(1-methylcyclopropyl) methanone]	0.152 nM
C[C@]1(N2CCc3c(-c4cnc(N)nc4)nc(N4CCOCC4)nc32)CCN(C(=O)[C@H]2C[C@@H]2F)C1 [Example 332, {(3S)-3-[4-(2-aminopyrimidin-5-yl)-2-(morpholin-4-yl)-5,6-dihydro-7H-pyrrolo[2,3-d]pyrimidin-7-yl]-3-methylpyrrolidin-1-yl}[(1R,2S)-2-fluorocyclopropyl] methanone]	<0.018 nM
C[C@]1(N2CCc3c(-c4cnc(N)nc4)nc(N4CCOCC4)nc32)CCN(C(=O)[C@@H]2C[C@H]2F)C1 [Example 333, {(3S)-3-[4-(2-aminopyrimidin-5-yl)-2-(morpholin-4-yl)-5,6-dihydro-7H-pyrrolo[2,3-d]pyrimidin-7-yl]-3-methylpyrrolidin-1-yl}[(1S,2R)-2-fluorocyclopropyl] methanone]	<0.018 nM
C[C@]1(N2CCc3c(-c4cnc(N)nc4)nc(N4CCOCC4)nc32)CCN(C(=O)[C@@H]2C[C@@H]2F)C1 [Example 334, {(3S)-3-[4-(2-aminopyrimidin-5-yl)-2-(morpholin-4-yl)-5,6-dihydro-7H-pyrrolo[2,3-d]pyrimidin-7-yl]-3-methylpyrrolidin-1-yl}[(1S,2S)-2-fluorocyclopropyl] methanone]	0.021 nM
C[C@]1(N2CCc3c(-c4cnc(N)nc4)nc(N4CCOCC4)nc32)CCN(C(=O)[C@H]2C[C@H]2F)C1 [Example 335, {(3S)-3-[4-(2-aminopyrimidin-5-yl)-2-(morpholin-4-yl)-5,6-dihydro-7H-pyrrolo[2,3-d]pyrimidin-7-yl]-3-methylpyrrolidin-1-yl}[(1R,2R)-2-fluorocyclopropyl] methanone]	<0.018 nM
C[C@]1(N2CCc3c(-c4cnc(N)nc4)nc(N4CCOCC4)nc32)CCN(C(=O)[C@H]2CC2(F)F)C1 [Example 336, {(3S)-3-[4-(2-aminopyrimidin-5-yl)-2-(morpholin-4-yl)-5,6-dihydro-7H-pyrrolo[2,3-d]pyrimidin-7-yl]-3-methylpyrrolidin-1-yl}[(1R)-2,2-difluorocyclopropyl] methanone]	0.054 nM
C[C@]1(N2CCc3c(-c4cnc(N)nc4)nc(N4CCOCC4)nc32)CCN(C(=O)[C@@H]2CC2(F)F)C1 [Example 337, {(3S)-3-[4-(2-aminopyrimidin-5-yl)-2-(morpholin-4-yl)-5,6-dihydro-7H-pyrrolo[2,3-d]pyrimidin-7-yl]-3-methylpyrrolidin-1-yl}[(1S)-2,2-difluorocyclopropyl] methanone]	<0.018 nM
C[C@]1(N2CCc3c(-c4cnc(N)nc4)nc(N4CCOCC4)nc32)CCN(C(=O)C2(N)CC2)C1.Cl [Example 340, (1-aminocyclopropyl) {(3S)-3-[4-(2-aminopyrimidin-5-yl)-2-(morpholin-4-yl)-5,6-dihydro-7H-pyrrolo[2,3-d]pyrimidin-7-yl]-3-methylpyrrolidin-1-yl}methanone hydrochloride]	0.234 nM
C[C@]1(N2CCc3c(-c4cnc(N)nc4)nc(N4CCOCC4)nc32)CCN(C(=O)C2CCC2)C1 [Example 341, {(3S)-3-[4-(2-aminopyrimidin-5-yl)-2-(morpholin-4-yl)-5,6-dihydro-7H-pyrrolo[2,3-d]pyrimidin-7-yl]-3-methylpyrrolidin-1-yl}(cyclobutyl)meth-anone]	<0.018 nM
C[C@@]1(N2CCc3c(-c4cnc(N)nc4)nc(N4CCOCC4)nc32)CCN(C(=O)C2CCC2)C1 [Example 342, {(3R)-3-[4-(2-aminopyrimidin-5-yl)-2-(morpholin-4-yl)-5,6-dihydro-7H-pyrrolo[2,3-d]pyrimidin-7-yl]-3-methylpyrrolidin-1-yl}(cyclobutyl)meth-anone]	0.141 nM
C[C@]1(N2CCc3c(-c4cnc(N)nc4)nc(N4CCOCC4)nc32)CCN(C(=O)C2(O)CCC2)C1 [Example 343, {(3S)-3-[4-(2-aminopyrimidin-5-yl)-2-(morpholin-4-yl)-5,6-dihydro-7H-pyrrolo[2,3-d]pyrimidin-7-yl]-3-methylpyrrolidin-1-yl}(1-hydroxycyclobutyl) methanone]	0.089 nM
C[C@@]1(N2CCc3c(-c4cnc(N)nc4)nc(N4CCOCC4)nc32)CCN(C(=O)C2(O)CCC2)C1 [Example 344, {(3R)-3-[4-(2-aminopyrimidin-5-yl)-2-(morpholin-4-yl)-5,6-dihydro-7H-pyrrolo[2,3-d]pyrimidin-7-yl]-3-methylpyrrolidin-1-yl}(1-hydroxycyclobutyl) methanone]	0.098 nM
C[C@]1(N2CCc3c(-c4cnc(N)nc4)nc(N4CCOCC4)nc32)CCN(C(=O)C2CC(O)C2)C1 (stereo partly drawn) [Example 345, {(3S)-3-[4-(2-aminopyrimidin-5-yl)-2-(morpholin-4-yl)-5,6-dihydro-7H-pyrrolo[2,3-d]pyrimidin-7-yl]-3-methylpyrrolidin-1-yl}(3-hydroxycyclobutyl) methanone]	0.028 nM
C[C@]1(N2CCc3c(-c4cnc(N)nc4)nc(N4CCOCC4)nc32)CCN(C(=O)C2(N)CCC2)C1 [Example 346, (1-aminocyclobutyl) {(3S)-3-[4-(2-aminopyrimidin-5-yl)-2-(morpholin-4-yl)-5,6-dihydro-7H-pyrrolo[2,3-d]pyrimidin-7-yl]-3-methylpyrrolidin-1-yl}methanone]	0.125 nM
C[C@]1(N2CCc3c(-c4cnc(N)nc4)nc(N4CCOCC4)nc32)CCN(C(=O)[C@@H]2CCN2)C1.Cl [Example 347, {(3S)-3-[4-(2-aminopyrimidin-5-yl)-2-(morpholin-4-yl)-5,6-dihydro-7H-pyrrolo[2,3-d]pyrimidin-7-yl]-3-methylpyrrolidin-1-yl}[(2S)-azetidin-2-yl]methanone hydrochloride]	0.075 nM
